Source: patent publication US6872729B2, “Pyrimidinylbenzimidazole and triazinylbenzimidazole derivatives and agricultural/horticultural fungicides” (Kumiai Chemical Industry Co., Ltd., priority 1998, dated 2005)

These molecules were tested on Erysiphe graminis (assay: Test for preventive effect on wheat powdery mildew). Conditions: wheat (Norin-61-go) seedlings, 500 ppm active ingredient, preventive treatment; diseased area of first leaves 10 days after inoculation with Erysiphe graminis.
Format: in vivo
Method: Test for Preventive Effect on Wheat Powdery Mildew 9 Wheat seeds (variety: Norin-61-go) were sown in each 9 cm×9 cm polyvinyl chloride pot, grown in a greenhouse for 8 days, then treated with 10 ml per pot of aqueous solutions of wettable powders prepared in accordance with Formulation Example 2, at a concentration of 500 ppm in terms of the active ingredients and dried in the air. Then, the seedlings were inoculated with Erysiphe graminis spores by sprinkle over the plant and placed in a greenhouse of from 20 to 25° C. 10 days after the inoculation, the total diseases area of the first leaves in each pot was observed and evaluated on the basis of the standards shown in Table 67. [table]

Question: With CCOc1cc(OCC)nc(-n2c(C)nc3cc(Cl)ccc32)n1 [Compound I-499] as the molecule, how does the Biological effectiveness read?
Answer: A (No diseased area)

Question: CCOc1cc(OCC)nc(-n2c(C)nc3cc(C)ccc32)n1 [Compound I-501] was tested. Which Biological effectiveness did it give?
Answer: A (No diseased area)

Question: Which Biological effectiveness does the source give for CCOc1cc(OCC)nc(-n2c(C)nc3cc(C(F)(F)F)ccc32)n1 [Compound I-502] here?
Answer: A (No diseased area)

Question: With CCOc1cc(OCC)nc(-n2c(C)nc3cc(OC)ccc32)n1 [Compound I-503] as the molecule, how does the Biological effectiveness read?
Answer: A (No diseased area)

Question: For CCOc1cc(OCC)nc(-n2c(C)nc3ccc(F)cc32)n1 [Compound I-507], which Biological effectiveness is on record?
Answer: A (No diseased area)

Question: Which Biological effectiveness does the source give for CCOc1cc(OCC)nc(-n2c(C)nc3ccc(Cl)cc32)n1 [Compound I-508] here?
Answer: B (Diseased area of less than 25%)

Question: With CCOc1cc(OCC)nc(-n2c(C)nc3ccc(C(F)(F)F)cc32)n1 [Compound I-510] as the molecule, how does the Biological effectiveness read?
Answer: A (No diseased area)

Question: With CCOc1cc(OCC)nc(-n2c(C)nc3ccc(OC)cc32)n1 [Compound I-511] as the molecule, how does the Biological effectiveness read?
Answer: A (No diseased area)

Question: With CCOc1nc(OCC)nc(-n2c(C)nc3cc(Cl)ccc32)n1 [Compound I-514] as the molecule, how does the Biological effectiveness read?
Answer: A (No diseased area)

Question: Which Biological effectiveness does the source give for CCOc1nc(OCC)nc(-n2c(C)nc3cc(Br)ccc32)n1 [Compound I-515] here?
Answer: A (No diseased area)

Question: With CCOc1nc(OCC)nc(-n2c(C)nc3cc(C)ccc32)n1 [Compound I-516] as the molecule, how does the Biological effectiveness read?
Answer: A (No diseased area)

Question: How did the Biological effectiveness turn out when CCOc1cc(OCC)nc(-n2c(Cl)nc3cc(C)ccc32)n1 [Compound I-530] was run?
Answer: A (No diseased area)

Question: CCOc1cc(OCC)nc(-n2c(Cl)nc3cc(OC)ccc32)n1 [Compound I-531] was tested. Which Biological effectiveness did it give?
Answer: A (No diseased area)

Question: Which Biological effectiveness does the source give for CCOc1nc(OCC)nc(-n2c(Cl)nc3cc(Cl)ccc32)n1 [Compound I-534] here?
Answer: A (No diseased area)

Question: Which Biological effectiveness does the source give for CCOc1nc(OCC)nc(-n2c(C(F)(F)F)nc3cc(C)ccc32)n1 [Compound I-543] here?
Answer: A (No diseased area)

Question: With CCOc1nc(OCC)nc(-n2c(C(F)(F)F)nc3cc(OC)ccc32)n1 [Compound I-544] as the molecule, how does the Biological effectiveness read?
Answer: A (No diseased area)

Question: For CCOc1nc(OCC)nc(-n2c(C(F)(F)F)nc3cc(Cl)ccc32)n1 [Compound I-545], which Biological effectiveness is on record?
Answer: A (No diseased area)

Question: How did the Biological effectiveness turn out when CCOc1nc(OCC)nc(-n2c(C(F)(F)F)nc3cc(Br)ccc32)n1 [Compound I-546] was run?
Answer: A (No diseased area)

Question: CCOc1nc(OCC)nc(-n2c(C(Cl)(Cl)Cl)nc3cc(Cl)ccc32)n1 [Compound I-550] was tested. Which Biological effectiveness did it give?
Answer: A (No diseased area)

Question: Which Biological effectiveness does the source give for CCOc1cc(OCC)nc(-n2c(S(C)(=O)=O)nc3cc(Cl)ccc32)n1 [Compound I-573] here?
Answer: B (Diseased area of less than 25%)

Question: For CCCOc1nc(OCCC)nc(-n2c(C)nc3cc(Cl)ccc32)n1 [Compound I-580], which Biological effectiveness is on record?
Answer: A (No diseased area)

Question: For Cc1nc2cc(Cl)ccc2n1-c1nc(OC(C)C)nc(OC(C)C)n1 [Compound I-592], which Biological effectiveness is on record?
Answer: A (No diseased area)

Question: With CC(C)Oc1nc(OC(C)C)nc(-n2c(C(F)(F)F)nc3cc(Cl)ccc32)n1 [Compound I-595] as the molecule, how does the Biological effectiveness read?
Answer: B (Diseased area of less than 25%)

Question: How did the Biological effectiveness turn out when C=CCOc1nc(OCC=C)nc(-n2c(C)nc3cc(Cl)ccc32)n1 [Compound I-601] was run?
Answer: A (No diseased area)

Question: With COc1ccnc(-n2cnc3cc(Cl)ccc32)n1 [Compound I-669] as the molecule, how does the Biological effectiveness read?
Answer: B (Diseased area of less than 25%)

Question: With COc1ccnc(-n2cnc3cc(C)ccc32)n1 [Compound I-670] as the molecule, how does the Biological effectiveness read?
Answer: B (Diseased area of less than 25%)

Question: Which Biological effectiveness does the source give for COc1ccnc(-n2c(C)nc3cc(Cl)ccc32)n1 [Compound I-671] here?
Answer: B (Diseased area of less than 25%)

Question: How did the Biological effectiveness turn out when COc1ccnc(-n2c(C)nc3cc(C)ccc32)n1 [Compound I-672] was run?
Answer: B (Diseased area of less than 25%)

Question: Which Biological effectiveness does the source give for COc1ccnc(-n2c(C)nc3ccc(Cl)cc32)n1 [Compound I-675] here?
Answer: B (Diseased area of less than 25%)

Question: COc1ccnc(-n2c(C(F)(F)F)nc3cc(Cl)ccc32)n1 [Compound I-682] was tested. Which Biological effectiveness did it give?
Answer: A (No diseased area)

Question: COc1ccnc(-n2c(C(F)(F)F)nc3cc(C)ccc32)n1 [Compound I-683] was tested. Which Biological effectiveness did it give?
Answer: A (No diseased area)

Question: Which Biological effectiveness does the source give for CCOc1ccnc(-n2cnc3ccccc32)n1 [Compound I-690] here?
Answer: A (No diseased area)

Question: With CCOc1ccnc(-n2cnc3cc(Cl)ccc32)n1 [Compound I-692] as the molecule, how does the Biological effectiveness read?
Answer: B (Diseased area of less than 25%)

Question: CCOc1ccnc(-n2cnc3cc(C)ccc32)n1 [Compound I-693] was tested. Which Biological effectiveness did it give?
Answer: A (No diseased area)

Question: With CCOc1ccnc(-n2c(C)nc3cc(Cl)ccc32)n1 [Compound I-694] as the molecule, how does the Biological effectiveness read?
Answer: B (Diseased area of less than 25%)

Question: With CCOc1ccnc(-n2c(C)nc3cc(C)ccc32)n1 [Compound I-695] as the molecule, how does the Biological effectiveness read?
Answer: A (No diseased area)

Question: With CCOc1ccnc(-n2c(C(F)(F)F)nc3cc(Cl)ccc32)n1 [Compound I-704] as the molecule, how does the Biological effectiveness read?
Answer: B (Diseased area of less than 25%)

Question: For CCOc1ccnc(-n2c(C(F)(F)F)nc3cc(C)ccc32)n1 [Compound I-705], which Biological effectiveness is on record?
Answer: A (No diseased area)

Question: Which Biological effectiveness does the source give for COc1cc(C)nc(-n2cnc3ccccc32)n1 [Compound I-726] here?
Answer: B (Diseased area of less than 25%)

Question: COc1cc(C)nc(-n2c(C)nc3cc(Cl)ccc32)n1 [Compound I-731] was tested. Which Biological effectiveness did it give?
Answer: B (Diseased area of less than 25%)

Question: How did the Biological effectiveness turn out when COc1nc(C)nc(-n2c(C)nc3cc(C)ccc32)n1 [Compound I-752] was run?
Answer: A (No diseased area)

Question: How did the Biological effectiveness turn out when COc1nc(C)nc(-n2c(Cl)nc3cc(C)ccc32)n1 [Compound I-758] was run?
Answer: A (No diseased area)

Question: Which Biological effectiveness does the source give for COc1nc(C)nc(-n2c(C(F)(F)F)nc3cc(C)ccc32)n1 [Compound I-762] here?
Answer: A (No diseased area)

Question: How did the Biological effectiveness turn out when COc1nc(C)nc(-n2c(N)nc3cc(C)ccc32)n1 [Compound I-767] was run?
Answer: B (Diseased area of less than 25%)

Question: With CCOc1cc(C)nc(-n2cnc3ccccc32)n1 [Compound I-768] as the molecule, how does the Biological effectiveness read?
Answer: A (No diseased area)

Question: With CCOc1cc(C)nc(-n2c(C)nc3ccccc32)n1 [Compound I-769] as the molecule, how does the Biological effectiveness read?
Answer: A (No diseased area)

Question: How did the Biological effectiveness turn out when CCOc1cc(C)nc(-n2c(Cl)nc3ccccc32)n1 [Compound I-771] was run?
Answer: A (No diseased area)

Question: With CCOc1cc(C)nc(-n2cnc3cc(C)ccc32)n1 [Compound I-772] as the molecule, how does the Biological effectiveness read?
Answer: A (No diseased area)

Question: CCOc1cc(C)nc(-n2c(C)nc3cc(C)ccc32)n1 [Compound I-775] was tested. Which Biological effectiveness did it give?
Answer: A (No diseased area)

Question: With CCCOc1cc(C)nc(-n2cnc3ccccc32)n1 [Compound I-804] as the molecule, how does the Biological effectiveness read?
Answer: A (No diseased area)

Question: How did the Biological effectiveness turn out when CCCOc1cc(C)nc(-n2cnc3cc(OC)ccc32)n1 [Compound I-805] was run?
Answer: B (Diseased area of less than 25%)

Question: With CCCOc1cc(C)nc(-n2c(C)nc3ccccc32)n1 [Compound I-806] as the molecule, how does the Biological effectiveness read?
Answer: B (Diseased area of less than 25%)

Question: How did the Biological effectiveness turn out when CCCOc1cc(C)nc(-n2cnc3cc(C)ccc32)n1 [Compound I-809] was run?
Answer: B (Diseased area of less than 25%)

Question: With CCCOc1cc(C)nc(-n2c(Cl)nc3cc(OC)ccc32)n1 [Compound I-818] as the molecule, how does the Biological effectiveness read?
Answer: B (Diseased area of less than 25%)

Question: Which Biological effectiveness does the source give for CCCOc1nc(C)nc(-n2c(C)nc3cc(C)ccc32)n1 [Compound I-831] here?
Answer: B (Diseased area of less than 25%)

Question: Cc1cc(OC(C)C)nc(-n2cnc3ccccc32)n1 [Compound I-839] was tested. Which Biological effectiveness did it give?
Answer: A (No diseased area)

Question: For Cc1cc(OC(C)C)nc(-n2c(C)nc3ccccc32)n1 [Compound I-840], which Biological effectiveness is on record?
Answer: B (Diseased area of less than 25%)

Question: For CCCCOc1cc(C)nc(-n2cnc3ccccc32)n1 [Compound I-872], which Biological effectiveness is on record?
Answer: B (Diseased area of less than 25%)

Question: With C=CCOc1cc(C)nc(-n2cnc3ccccc32)n1 [Compound I-883] as the molecule, how does the Biological effectiveness read?
Answer: A (No diseased area)

Question: Which Biological effectiveness does the source give for C=CCOc1cc(C)nc(-n2c(C)nc3ccccc32)n1 [Compound I-885] here?
Answer: B (Diseased area of less than 25%)

Question: For C#CCOc1cc(C)nc(-n2cnc3ccccc32)n1 [Compound I-894], which Biological effectiveness is on record?
Answer: B (Diseased area of less than 25%)

Question: Which Biological effectiveness does the source give for C#CCOc1cc(C)nc(-n2cnc3cc(C)ccc32)n1 [Compound I-895] here?
Answer: B (Diseased area of less than 25%)

Question: C#CCOc1cc(C)nc(-n2c(C(F)(F)F)nc3cc(C)ccc32)n1 [Compound I-903] was tested. Which Biological effectiveness did it give?
Answer: B (Diseased area of less than 25%)

Question: How did the Biological effectiveness turn out when C#CCOc1cc(C)nc(-n2c(N)nc3cc(C)ccc32)n1 [Compound I-904] was run?
Answer: B (Diseased area of less than 25%)

Question: CSc1nc(C)nc(-n2c(C)nc3cc(C)ccc32)n1 [Compound I-915] was tested. Which Biological effectiveness did it give?
Answer: A (No diseased area)

Question: Which Biological effectiveness does the source give for CCCc1cc(OC)nc(-n2cnc3ccccc32)n1 [Compound I-958] here?
Answer: B (Diseased area of less than 25%)

Question: How did the Biological effectiveness turn out when CCCc1cc(OC)nc(-n2c(C)nc3ccccc32)n1 [Compound I-959] was run?
Answer: A (No diseased area)

Question: With CCCc1cc(OC)nc(-n2c(Cl)nc3ccccc32)n1 [Compound I-960] as the molecule, how does the Biological effectiveness read?
Answer: A (No diseased area)

Question: With CCCc1cc(OC)nc(-n2cnc3cc(C)ccc32)n1 [Compound I-962] as the molecule, how does the Biological effectiveness read?
Answer: A (No diseased area)

Question: With CCCc1cc(OC)nc(-n2c(C)nc3cc(Cl)ccc32)n1 [Compound I-964] as the molecule, how does the Biological effectiveness read?
Answer: B (Diseased area of less than 25%)

Question: CCCc1cc(OC)nc(-n2c(C)nc3cc(C)ccc32)n1 [Compound I-965] was tested. Which Biological effectiveness did it give?
Answer: A (No diseased area)

Question: With CCCc1cc(OC)nc(-n2c(C)nc3ccc(Cl)cc32)n1 [Compound I-967] as the molecule, how does the Biological effectiveness read?
Answer: A (No diseased area)
